The subject of this test is OPG knockout mice. Nature of the test: Bone morphometry of lumbar trabecular bone and femoral cortical bone in OPG knockout mice given drug in feed. The test is classed as in vivo, mouse. Particulars: 0.03% drug in paste feed, 4 weeks. On the procedure:
OPG knockout mice (6 week-old) were divided into 3 groups with 7 mice being prepared for each group. These mice were obtained from CLEA Japan, Inc. and categorized into three groups: control group (Cont), HX531 group (HX), and LE 135 group (LE). LE135 is a compound synthesized as a nuclear receptor […] (RAR) antagonist.
Paste feed is prepared by adding sterile water into and softening sterilized pellets in a dish. HX531 group and LE135 group were provided with the paste feed in which a corresponding drug was mixed. The amount of feed provided per day was fixed at 3 g per mouse in a solid state. The amount of drugs was calculated at 0.03% to the feed weight. Although the paste feed was exchanged everyday, almost no feed was left in all groups. A drug was administered successively for 4 weeks, and mice were double-labeled with tetracyclines and calceins by an abdominal administration 4 days and 2 days before they were sacrificed.
While bone morphometry of femur (cortical bone) and lumbar (trabecular bone) was conducted, a histological observation of femur was made. Furthermore, a blood sample was taken before the sacrifice to measure a bone formation marker.

These results are taken from US20090270612A1, “Therapeutic Agent for Osteoporosis Using a Retinoid X Receptor-Related Compound” (priority 2005, published 2009).

Turning to `CN1c2ccc([N+](=O)[O-])cc2N=C(c2ccc(C(=O)O)cc2)c2cc3c(cc21)C(C)(C)CCC3(C)C` [HX531], the “bone mass in a lumbar trabecular bone by bone morphometry” value (FIG. 1) was “large compared to the mice from the control group or mice provided with LE135”. In addition, where the note is “FIG. 2”, the “trabecula number in a lumbar trabecular bone by bone morphometry” value is given as “large compared to the mice from the control group or mice provided with LE135”. Moreover, the “bone resorption rate in a lumbar trabecular bone by bone morphometry” value (FIG. 7) is “significantly low”. Moreover, the “osteoclast surface in a lumbar trabecular bone by bone morphometry” value (FIG. 8) is on record as “small compared to the mice from the control group”. In addition, the “rarefaction surface/cortical bone in a femoral cortical bone by bone morphometry” value (FIG. 11) is reported as “significantly low compared to the mice from the control group”. Moreover, for the setting “FIG. 12”, the “porous surface in a femoral cortical bone by bone morphometry” value is on record as “small”.
